The text below walks through data of patent US11878965B2, “Inhibitors of peptidylarginine deiminases” (Gilead Sciences, Inc., priority 2020, dated 2024).

Molecules are shown by their SMILES.

Sequence of human PAD4 (Q9UM07 2-663): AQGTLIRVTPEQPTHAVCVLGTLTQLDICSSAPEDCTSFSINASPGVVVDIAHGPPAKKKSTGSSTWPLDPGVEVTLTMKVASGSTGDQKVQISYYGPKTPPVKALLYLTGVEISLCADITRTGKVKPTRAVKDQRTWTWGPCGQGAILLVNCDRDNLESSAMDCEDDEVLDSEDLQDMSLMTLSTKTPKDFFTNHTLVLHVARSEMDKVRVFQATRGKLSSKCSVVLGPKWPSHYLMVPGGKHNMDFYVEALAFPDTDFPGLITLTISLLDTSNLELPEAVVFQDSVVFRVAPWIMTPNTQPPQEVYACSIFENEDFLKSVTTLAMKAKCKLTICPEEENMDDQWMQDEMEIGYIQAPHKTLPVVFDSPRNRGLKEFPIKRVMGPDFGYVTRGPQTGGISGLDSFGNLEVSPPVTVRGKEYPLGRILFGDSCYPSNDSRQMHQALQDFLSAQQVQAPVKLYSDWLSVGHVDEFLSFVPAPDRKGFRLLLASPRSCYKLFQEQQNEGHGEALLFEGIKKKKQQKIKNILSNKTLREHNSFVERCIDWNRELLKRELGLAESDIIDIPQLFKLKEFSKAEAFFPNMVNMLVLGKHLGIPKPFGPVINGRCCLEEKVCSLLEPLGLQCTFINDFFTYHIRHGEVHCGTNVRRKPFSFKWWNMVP

The first assay has as its target human PAD4 (Homo sapiens (Human), UniProt Q9UM07). Put plainly: In Vitro PAD4 BAEE Biochemical Assay. Particulars: human PAD4, BAEE substrate; 5 nM PAD4, 2 mM calcium chloride, 3 mM BAEE; geometric mean of multiple experiments. The method, boiled down:
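Recombinant human PAD4 (His-SUMO tag removed, E. coli-expressed), 5 nM, preincubated with compound and 2 mM CaCl2 30 min at 25 °C in MOPS pH 7.6 with DTT; 3 mM BAEE added for 2 h at 25 °C, EDTA stop. Released ammonia detected by o-phthalaldehyde/DTT fluorescence (ex 405, em 535 nm).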
Take `COc1cc(C(=O)N[C@@H]2CCNC2)cc2nc(-c3cc4ccc(N(C(F)F)S(C)(=O)=O)nc4n3CC3CC3)n(C)c12` [Example 72, (R)-2-(1-(cyclopropylmethyl)-6-((N-(difluoromethyl)methyl)sulfonamido)-1H-pyrrolo[2,3-b]pyridin-2-yl)-7-methoxy-1-methyl-N-(pyrrolidin-3-yl)-1H-benzo[d] imidazole-5-carboxamide]: the IC50 is 20.9 µM.

Turning to `COc1cc(C(=O)N2C[C@H](N)CCN2C)cc2nc(-c3cc4ccc([C@@H](C)NC(=O)c5ccccc5)nc4n3CC3CC3)n(C)c12` [Example 154, N-((R)-1-(2-(5-((R)-5-amino-2-methylhexahydropyridazine-1-carbonyl)-7-methoxy-1-methyl-1H-benzo[d]imidazol-2-yl)-1-(cyclopropylmethyl)-1H-pyrrolo[2,3-b]pyridin-6-yl)ethyl)benzamide], the IC50 amounted to 0.0897 µM.

As for `COc1cc(C(=O)N2CCC[C@@H](N)C2)cc2nc(-c3cc4ccc(N5CCCS5(=O)=O)nc4n3CC3CC3)n(C)c12` [Example 96, (R)-(3-aminopiperidin-1-yl)(2-(1-(cyclopropylmethyl)-6-(1,1-dioxidoisothiazolidin-2-yl)-1H-pyrrolo[2,3-b]pyridin-2-yl)-7-methoxy-1-methyl-1H-benzo[d]imidazol-5-yl) methanone], the IC50 was 1.05 µM.

For `COc1cc(C(=O)N2C[C@H](N)CC[C@@H]2C)cc2nc(-c3cc4ccc(-n5c(C)cccc5=O)nc4n3CC3CC3)n(C)c12` [Example 282, 1-(2-(5-((2S,5R)-5-amino-2-methylpiperidine-1-carbonyl)-7-methoxy-1-methyl-1H-benzo[d]imidazol-2-yl)-1-(cyclopropylmethyl)-1H-pyrrolo[2,3-b]pyridin-6-yl)-6-methylpyridin-2(1H)-one], the IC50 is 0.146 µM.

On to `COc1cc(C(=O)N2C[C@H](N)CCN2C)cc2nc(-c3cc4ccc([C@@H](C)NC(=O)[C@@H]5CC5(F)F)nc4n3CC3CC3)n(C)c12` [Example 168, (S)-N-((R)-1-(2-(5-((R)-5-amino-2-methylhexahydropyridazine-1-carbonyl)-7-methoxy-1-methyl-1H-benzo[d]imidazol-2-yl)-1-(cyclopropylmethyl)-1H-pyrrolo[2,3-b]pyridin-6-yl)ethyl)-2,2-difluorocyclopropane-1-carboxamide], for which the IC50 was determined as 0.102 µM.

As to `COc1cc(C(=O)N2[C@H]3CC[C@@H]2[C@H](N)C3)cc2nc(-c3cc4ccc([C@@H](C)NC(=O)c5cnn(C(F)F)c5)nc4n3CC3CC3)n(C)c12` [Example 205, N-((R)-1-(2-(5-((1R,2R,4S)-2-amino-7-azabicyclo[2.2.1]heptane-7-carbonyl)-7-methoxy-1-methyl-1H-benzo[d]imidazol-2-yl)-1-(cyclopropylmethyl)-1H-pyrrolo[2,3-b]pyridin-6-yl)ethyl)-1-(difluoromethyl)-1H-pyrazole-4-carboxamide], the IC50 amounted to 0.0797 µM.

On to `COc1cc(C(=O)N2[C@H]3CC[C@@H]2[C@H](N)C3)cc2nc(-c3cc4ccc([C@@H](C)NC(=O)c5ccccc5)nc4n3CC3CC3)n(C3CC3)c12` [Example 129, N-((R)-1-(2-(5-((1R,2R,4S)-2-amino-7-azabicyclo[2.2.1]heptane-7-carbonyl)-1-cyclopropyl-7-methoxy-1H-benzo[d]imidazol-2-yl)-1-(cyclopropylmethyl)-1H-pyrrolo[2,3-b]pyridin-6-yl)ethyl)benzamide], for which the IC50 was 0.086 µM.

In the case of `COc1cc(C(=O)N2CCC[C@@H](N)C2)cc2nc(-c3cc4ccc(S(C)(=O)=O)nc4n3CC3CC3)n(C)c12` [Example 253, (R)-(3-aminopiperidin-1-yl)(2-(1-(cyclopropylmethyl)-6-(methylsulfonyl)-1H-pyrrolo[2,3-b]pyridin-2-yl)-7-methoxy-1-methyl-1H-benzo[d]imidazol-5-yl)methanone], the IC50 is 0.797 µM.

With `COc1cc(C(=O)N2[C@H]3CC[C@@H]2[C@H](N)C3)cc2nc(-c3cc4ccc([C@@H](C)NC(=O)N5CC(O)C5)nc4n3CC3CC3)n(C)c12` [Example 236, N-((R)-1-(2-(5-((1R,2R,4S)-2-amino-7-azabicyclo[2.2.1]heptane-7-carbonyl)-7-methoxy-1-methyl-1H-benzo[d]imidazol-2-yl)-1-(cyclopropylmethyl)-1H-pyrrolo[2,3-b]pyridin-6-yl)ethyl)-3-hydroxyazetidine-1-carboxamide], the IC50 was determined as 0.0513 µM.

Take `COc1cc(C(=O)N2C[C@H]3CC[C@@H]2[C@@H]3N)cc2nc(-c3cc4ccc(N5[C@@H](C)CCCS5(=O)=O)nc4n3CC3CC3)n(C)c12` [Example 104, ((1R,4R,7R)-7-amino-2-azabicyclo[2.2.1]heptan-2-yl) (2-(1-(cyclopropylmethyl)-6-((S)-3-methyl-1,1-dioxido-1,2-thiazinan-2-yl)-1H-pyrrolo[2,3-b]pyridin-2-yl)-7-methoxy-1-methyl-1H-benzo[d]imidazol-5-yl) methanone]: the IC50 was 0.0793 µM.

Regarding `COc1cc(C(=O)N2[C@H]3CC[C@@H]2[C@H](N)C3)cc2nc(-c3cc4ccc(N(C(C)C)S(C)(=O)=O)nc4n3CC3CC3)n(C)c12` [Example 84, N-(2-(5-((1R,2R,4S)-2-amino-7-azabicyclo[2.2.1]heptane-7-carbonyl)-7-methoxy-1-methyl-1H-benzo[d]imidazol-2-yl)-1-(cyclopropylmethyl)-1H-pyrrolo[2,3-b]pyridin-6-yl)-N-isopropylmethanesulfonamide], the IC50 is 0.0583 µM.

As for `COc1cc(C(=O)N2C[C@H](N)CC[C@@H]2C)cc2nc(-c3cc4ccc(N5C(=O)CCC5C)nc4n3CC3CC3)n(C)c12` (stereo partly drawn) [Example 280, 1-(2-(5-((2S,5R)-5-amino-2-methylpiperidine-1-carbonyl)-7-methoxy-1-methyl-1H-benzo[d]imidazol-2-yl)-1-(cyclopropylmethyl)-1H-pyrrolo[2,3-b]pyridin-6-yl)-5-methylpyrrolidin-2-one], the IC50 was determined as 0.531 µM.

Regarding `COc1cc(C(=O)N2C[C@@H]3CC[C@@](N)(C3)C2)cc2nc(-c3cc4ccc(N(C(F)F)S(C)(=O)=O)nc4n3CC3CC3)n(C)c12` [Example 61, N-(2-(5-((1R,5R)-1-amino-3-azabicyclo[3.2.1]octane-3-carbonyl)-7-methoxy-1-methyl-1H-benzo[d]imidazol-2-yl)-1-(cyclopropylmethyl)-1H-pyrrolo[2,3-b]pyridin-6-yl)-N-(difluoromethyl) methanesulfonamide], the IC50 turned out to be 36.8 µM.

Regarding `COc1cc(C(=O)N2C[C@H](N)CCN2C)cc2nc(-c3cc4ccc([C@@H](C)NC(=O)C5(c6ccccc6)CC5)nc4n3CC3CC3)n(C)c12` [Example 160, N-((R)-1-(2-(5-((R)-5-amino-2-methylhexahydropyridazine-1-carbonyl)-7-methoxy-1-methyl-1H-benzo[d]imidazol-2-yl)-1-(cyclopropylmethyl)-1H-pyrrolo[2,3-b]pyridin-6-yl)ethyl)-1-phenylcyclopropane-1-carboxamide], the IC50 was 0.481 µM.

Take `CN(c1ccc2cc(-c3nc4cc(C(=O)N5CCC[C@@H](N)C5)cc5c4n3CCO5)n(CC3CC3)c2n1)S(C)(=O)=O` [Example 89, (R)-N-(2-(7-(3-aminopiperidine-1-carbonyl)-3,4-dihydro-5-oxa-1,2a-diazaacenaphthylen-2-yl)-1-(cyclopropylmethyl)-1H-pyrrolo[2,3-b]pyridin-6-yl)-N-methylmethanesulfonamide]: the IC50 amounted to 0.812 µM.

Consider `COc1cc(C(=O)N2C[C@H](N)CCN2C)cc2nc(-c3cc4ccc([C@@H](C)NC(=O)c5cccnc5)nc4n3CC3CC3)n(C)c12` [Example 201, N-((R)-1-(2-(5-((R)-5-amino-2-methylhexahydropyridazine-1-carbonyl)-7-methoxy-1-methyl-1H-benzo[d]imidazol-2-yl)-1-(cyclopropylmethyl)-1H-pyrrolo[2,3-b]pyridin-6-yl)ethyl)nicotinamide], for which the IC50 was determined as 0.0677 µM.

The assay is the same for the next values; noted with them: recombinant PAD4 5 nM, 2 mM calcium chloride, 3 mM BAEE substrate; geometric mean of multiple experiments.
As to `C[C@@H](NS(=O)(=O)C1CC1)c1ccc2cc(-c3nc4cc(C(=O)N5C[C@H](N)[C@@H]6CC[C@H]5C6)cc(F)c4n3C3CC3)n(CC3CC3)c2n1` [Example 232, N-((R)-1-(2-(5-((1S,4R,5R)-4-amino-2-azabicyclo[3.2.1]octane-2-carbonyl)-1-cyclopropyl-7-fluoro-1H-benzo[d]imidazol-2-yl)-1-(cyclopropyImethyl)-1H-pyrrolo[2,3-b]pyridin-6-yl)ethyl)cyclopropanesulfonamide], the IC50 came to 0.0898 µM.

As to `C[C@@H](NC(=O)C12CC(F)(C1)C2)c1ccc2cc(-c3nc4cc(C(=O)N5C[C@H](N)[C@@H]6CC[C@H]5C6)cc(F)c4n3C3CC3)n(CC3CC3)c2n1` [Example 219, N-((R)-1-(2-(5-((1S,4R,5R)-4-amino-2-azabicyclo[3.2.1]octane-2-carbonyl)-1-cyclopropyl-7-fluoro-1H-benzo[d]imidazol-2-yl)-1-(cyclopropylmethyl)-1H-pyrrolo[2,3-b]pyridin-6-yl)ethyl)-3-fluorobicyclo[1.1.1]pentane-1-carboxamide], the IC50 was 0.0786 µM.

In the case of `COc1cc(C(=O)N2C[C@H](N)[C@@H]3CC[C@H]2C3)cc2nc(-c3cc4ccc([C@@H](C)NC(=O)C(C)(C)F)nc4n3CC3CC3)n(C)c12` [Example 325, N-((R)-1-(2-(5-((1S,4R,5R)-4-amino-2-azabicyclo[3.2.1]octane-2-carbonyl)-7-methoxy-1-methyl-1H-benzo[d]imidazol-2-yl)-1-(cyclopropylmethyl)-1H-pyrrolo[2,3-b]pyridin-6-yl)ethyl)-2-fluoro-2-methylpropanamide], the IC50 came to 0.0918 µM.

As to `COc1cc(C(=O)N2C[C@H](N)[C@@H]3CC[C@H]2C3)cc2nc(-c3cc4ccc([C@@H](C)NC(=O)c5cnc(C(F)F)nc5)nc4n3CC3CC3)n(C)c12` [Example 315, N-((R)-1-(2-(5-((1S,4R,5R)-4-amino-2-azabicyclo[3.2.1]octane-2-carbonyl)-7-methoxy-1-methyl-1H-benzo[d]imidazol-2-yl)-1-(cyclopropylmethyl)-1H-pyrrolo[2,3-b]pyridin-6-yl)ethyl)-2-(difluoromethyl)pyrimidine-5-carboxamide], the IC50 was found to be 0.0813 µM.

The IC50 is the concentration that inhibits the measured activity by half.
